According to patent publication US20080138299A1, “Oral Pharmaceuticals or Oral Hygiene Products Comprising Licorice Flavonoid Extract” (Hawley & Hazel (BVI) Company Limited, priority 2006, published 2008):

Legend:
[1] = test system: Actinomyces naeslundii (A. n) ATCC 12104; assay: Broth micro-dilution MIC; assay type: cell-based; conditions: no unit in table; dilution series 250-0.12 mg/L, ceiling 250 ppm; 37 °C, 18-24 h; smaller = stronger
From the text: (§1) 3. The Inhibition Experiment of Licochalone A and Total Flavonoid Extracts of Zhangguo Licorice (Glycyrrhiza inflate Betal) on Primary Oral Pathogenic Microorganisms 3.1 The Cultivation of the Bacteria Species: Streptococcus mutans (ATCC 25175), Actinomyces naeslundii (ATCC 12104), Actinobacillus actinomycetemicomtans (ATCC 43717), Porphyromonas gingivalis (ATCC 33277), Listed as Following:
(§2) A single colony is picked from the Trypticase Digested Soybean peptone agar blood plate (TSA5B) ordinarily stored bacteria species to Trypticase Digested Soybean peptone broth (TSB), cultivated in microaerobic environment (only P.g needs anaerobic cultivation) with 95% air, 5% CO2 at 37.0° C.±1.0° C., wherein S.m is cultivated for 18-24 h, and the remaining three are cultivated for 40-48 h. Then sterile TSB is used to adjust the turbidity of the bacteria suspension to 0.5^#McFarland standard, equivalent to 1.0×10^8 CFU/mL.
(§3) After performing a series of 2-fold dilutions to the anti-bacteria pharmaceuticals, rationally inoculate with tested bacteria, and observe after incubated at 37° C. for 18-24 h, wherein the lowest pharmaceutical concentration that inhibits the growth visible to the naked eye of the tested bacteria is the minimum inhibitive concentration (MIC) of the tested pharmaceuticals to the tested bacteria. The operating steps are:
(§4) a. Preparation of the stock solution of antibacterial pharmaceutical: Prepare 1% stock solution of various antibacterial pharmaceuticals dope with 100% pure ethanol as solvent. The prepared stock solution is filtered to eliminate bacteria, and is distributed into small portions to be used. b. Range of measured concentration: the present experiment chooses 250 ppm as the ceiling measured concentration of the anti-bacteria pharmaceutical. c. Measuring method: micro-dilution method.
(§5) First add 100 μL TSB to each hole of the 96-well plate, and add 100 μL sterile anti-bacteria pharmaceutical solution which is diluted 10-folds (1000 mg/l) to each hole of the first column, then blow on each hole of the first column repeatedly for 7-8 times using multi-channel micropipet, transfer 100 μL sample to the second column after sufficiently mixing the pharmaceutical with TSB, and after similarly blowing for 7-8 times, transfer 100 μL sample to the third column, and analogously to the last column, thus the concentration of pharmaceutical is 2-fold gradiently diluted, from 500 mg/L of the first column to 0.24 mg/L of the last column (the 12th column).
(§6) The bacteria to be tested and standard bacteria are prepared as above. Dilute the bacteria solution with TSB to a bacteria content of about 10^6 CFU/mL. Then inoculate 100 μL for each hole. Thus the final diluted concentration of the anti-bacteria pharmaceutical in each line are 250, 125, 62.5 . . . 0.12 mg/L, and the final inoculation quantity is about […] or 5×10^6 bacteria each hole; the 96-well plate is placed on a microshaker and is shook for 1 min to mix the solution in each hole. The microwell plate is covered and is sealed with adhesive paper to reduce the evaporation during the incubation process and is placed in a humid box, cultivated in microaerobic environment with 95% air, 5% CO2 (or in anaerobic environment with 90% N2, 5% H2, 5% CO2) at 37.0° C.±1.0° C. for 18-24 h. The 96-well plate is placed under an enzyme-labeling instrument, and by comparing the growing characteristics of the tested bacteria with the standard bacteria, the lowest anti-bacteria pharmaceutical concentration contained in the hole without bacteria is taken as MIC.

[2] = test system: Streptococcus mutans (S. m) ATCC 25175; assay: Broth micro-dilution MIC; assay type: cell-based; conditions: no unit in table; dilution series 250-0.12 mg/L, ceiling 250 ppm; 37 °C, 18-24 h; smaller = stronger
From the text: as §1, §2, §3, §4, §5, §6

[3] = test system: Actinobacillus actinomycetemcomitans (A. a) ATCC 43717; assay: Broth micro-dilution MIC; assay type: cell-based; conditions: no unit in table; dilution series 250-0.12 mg/L, ceiling 250 ppm; 37 °C, 18-24 h; smaller = stronger
From the text: as §1, §2, §3, §4, §5, §6

[4] = test system: Porphyromonas gingivalis (P. g) ATCC 33277; assay: Broth micro-dilution MIC; assay type: cell-based; conditions: no unit in table; dilution series 250-0.12 mg/L, ceiling 250 ppm; anaerobic, 37 °C, 18-24 h; smaller = stronger
From the text: as §1, §2, §3, §4, §5, §6

IL-1β = assay: KB cell Luminex liquid-phase chip analysis; assay type: cell-based, human; conditions: KB cell supernatant, higher = stronger, test concentration not given
Description: (§7) During the experiment, the KB cell inoculated in the cultivating plate is treated with or without (control) Licochalone A. After the treatment, the supernatant of the cultivated liquid is collected and stored in −80 C refrigerator. The PGE2 in the supernatant is detected by Enzyme-linked immunsorbent assay, and Luminex multifunctional liquid-phase chip analysis system is used for the detection of GM-CSF, TNF-α, IL-1β and IL-6 (the result is shown in Table 3).
(§8) The 96-well plate is enclosed for 30 min. The fluorescent microspheres are added into the 96-well plate after dilution. Add the standard sample and the sample to be measured, stay overnight at 4° C. In the next day, the supernatant is discarded, and 50 μl GM-CSF, TNF-α, IL-1β and IL-6 antibodies are added to each hole. After rinsing 4 times, the 96-well plate is placed in a shaking table under ambient temperature to shade from light for 1 h, rinse 4 times, and add PE labeled with streptavidin and shade from light for 15 min at room temperature. Rinse 4 times, the microspheres are suspended in the rinsing buffer, and the 96-well plate is immediately placed on Luminex (Luminex Corporation, Austin, Tx.) to analyze.

TNF-α = assay: KB cell Luminex liquid-phase chip analysis; assay type: cell-based, human; conditions: KB cell supernatant, higher = stronger, test concentration not given
Description: as §7, §8

IL-6 = assay: KB cell Luminex liquid-phase chip analysis; assay type: cell-based, human; conditions: KB cell supernatant, higher = stronger, test concentration not given
Description: as §7, §8

GM-CSF = assay: KB cell Luminex liquid-phase chip analysis; assay type: cell-based, human; conditions: KB cell supernatant, higher = stronger, test concentration not given
Description: as §7, §8

Row | SMILES | minimum inhibitive concentration (MIC), A. n [1] | minimum inhibitive concentration (MIC), S. m [2] | minimum inhibitive concentration (MIC), A. a [3] | minimum inhibitive concentration (MIC), P. g [4] | IL-1β (interleukin) (anti-inflammatory ability) (IL-1β) [%] | TNF-α (Tumor Necrosis Factor) (anti-inflammatory ability) (TNF-α) [%] | IL-6 (interleukin) (anti-inflammatory ability) (IL-6) [%] | GM-CSF (anti-inflammatory ability) (GM-CSF) [%]
1 | C=CC(C)(C)c1cc(/C=C/C(=O)c2ccc(O)cc2)c(OC)cc1O [Licochalone A, 5-(1,1-Dimethylallyl)-4,4′-dihydroxy-2-methoxychalcone] | 7.8 | 7.8 | >250 | 1.9 | 19 | 95 | 50 | 8
2 | Oc1cc(Cl)ccc1Oc1ccc(Cl)cc1Cl [Triclosan] | 3.9 | 3.9 | 1.9 | 7.8 | 7 | 81 | 31 | 5
